Patent US20030104090A1, “Supplements containing annatto extracts and carotenoids and methods for using the same” (priority 2000, published 2003)
Like-named read-outs stand apart in the source and are kept apart here.

What was measured:
[1] = cited from earlier work
xenobiotic enzymes = settings: rat, dietary supplementation; cited from earlier work
lipoxidase = settings: cited from earlier work; for antioxidant activity and lipoxidase inhibition: in vitro, isolated cell or enzyme systems
DNA = settings: cells exposed to radiation, metal ions and peroxides, cisplatin; cited from earlier work
[2] = tested on: PIM-1, p-53, BAX, and BCL-2; test: mRNA expression in isolated splenocytes cultured with concanavalin-A (Example 2); assay type: cell-based, BALB/c mice; settings: splenocytes of mice fed dietary bixin
Procedure: (§1) Female BALB/c mice and the WAZ-2T(-SA) mammary tumor cell line were used to determine the efficacy of dietary bixin in inhibiting mammary tumor development. Six mice per treatment were fed a semi synthetic AlN-93M diet containing 0, 0.006 or 0.06% bixin. After 14 days, all mice were inoculated with 2500 tumor cells (a cell load which typically produces a 65% tumor incidence in untreated controls). Tumor growth was measured daily for 50 days, at which time blood, liver, spleen, and tumors were removed and evaluated. […] Final tumor weight was 0.3 grams at 0.06% dietary bixin, 0.7 grams at 0.006% and 1.1 grams for the control without dietary bixin. Tumor latency (number of days post inoculation when mammary tumors were first palpable) was 45 days at 0.06% dietary bixin level, 38 days at 0.006%, and 30 days for the control. Results were determined to be statistically significant at the P<0.05 level. […] It may thus be concluded that the dietary bixin protected the mice from mammary tumor development by triggering genes of immune related systems rather than by an antioxidant action at the cellular level.

[3] = JECFA 1982, expressed as bixin; cited from earlier work
[4] = tested on: thiobarbituric acid-reactive substances; test: Oxidative stress load in the blood, modified TBAR test and free radical content (Example 1); assay type: in vivo, human; settings: humans exposed to high ozone and smoke, 20 mg bixin daily
Source text: (§2) Two groups of human volunteers (3 individuals in the test group and 5 in the control group) were exposed to high oxidative stress conditions by breathing contaminated air of a high ozone level and a high concentration of smoke over a period of four to five days for one half hour per day. Both groups were given the same diets. Namely, they consumed their normal daily diets but avoided foods rich in carotenoids, particularly foods containing annatto (as a colorant), from two weeks before the exposure until two weeks after the exposure.

[5] = rats, oral administration, gamma-radiation; cited from earlier work
[6] = tested on: WAZ-2T(-SA) mammary tumor cell line; test: Dietary bixin in mammary tumor development (Example 2); assay type: in vivo, BALB/c mice; settings: for final tumor weight: 50 days after inoculation, control 1.1 grams; for tumor latency (days post inoculation when tumors first palpable): control 30 days
Procedure: as §1

[7] = tested on: formation of cancer cells; settings: carcinogenesis with methylcholantrene; cited from earlier work
Connexin-43 = settings: cited from earlier work
[8] = after human ingestion; cited from earlier work
[9] = Serum levels of bixin and norbixin in human volunteers on bixin supplementation (Example 1); assay type: in vivo; settings: human test group, 20 milligrams bixin daily as two 10 mg capsules, during supplementation
Source text: as §2
During the period of bixin supplementation, the serum level of bixin and norbixin was zero in the control group, while the serum levels of bixin and norbixin in the individuals of the test group reached levels of 12 and 60 micrograms/liter, respectively.

[10] = Acceptable daily intake (JECFA, 1982); design: species or system human; settings: worked out from 0.065 mg/day/kg
Source text: Bixin and its hydrolyzed form, norbixin, are used as coloring agents for human consumption, mainly in cheese (see Collins, “The role of annatto in food colouring,” Food Ingredients and Processing International, 23-27 (February 1992)). For some coloring applications, methylbixin has been commercially prepared by esterification of the […] of the bixin molecule (Zechmelster, et al., “A stereochernical study of methylbixin,” J. Am. Chem. Soc., 66:322330 (1944); Jondiko, et al., “Terpenoids and an apocarotenoid from seeds of B. orellana,” Phytochemistry, 28:3159-3162 (1989)). As a natural color additive to foods, particularly cheeses, bixin is typically added at concentrations of about 1 to 25 mg bixin per kg of food, although higher quantities may be used for some cheeses. Estimates of average daily intake of bixin compounds (usually bixin and norbixin) are of the order of 0.3 to 3 mg per day per person, although some studies report higher values, through the consumption of products such as cheeses, cake decoration, breakfast cereals, ice cream, snacks, margarine, and other foods in which bixin extract is added during food manufacture to provide color. The maximum ADI (acceptable daily intake) established by the Joint FAO/WHO Committee on Food Additives (JECFA, 1982) is 0.065 mg/day/kg body weight, expressed as bixin. […]

C3H- 1 O-T 1-2 cells = settings: same level as lutein and canthaxanthin, surpassed only by alpha-tocopherol; cited from earlier work
[11] = mice and rats on high dietary doses; cited from earlier work
[12] = mice, 66 mg norbixin per kilogram body weight; cited from earlier work
[13] = rats, cited from earlier work
[14] = dietary, pregnant rats; cited from earlier work
[15] = tested on: hippocampal neuronal cells; settings: by suppressing activation of c-Src kinase; cited from earlier work
[16] = 100 milligrams per day for 35 days; cited from earlier work
aldose reductase = aldose reductase (Homo sapiens, UniProt P15121); settings: found in annatto leaf extract; cited from earlier work
NIH3T3 cells = settings: in combination with lovastatin, without the cytotoxicity of lovastatin alone; cited from earlier work
tumor cells = settings: e.g. human leukemia U937; cited from earlier work
PPARgamma and PPARalpha = settings: 3T3-L1 adipocytes and HepG2 hepatocytes, in vitro; cited from earlier work
[17] = tested on: esterification of retinol; settings: cited from earlier work
caspase-3 = settings: HL-60 cells; cited from earlier work

For vitamin E, the “urinary albumin excretion rate” value ([1]; humans with type 2 diabetes) is given as “significantly reduced” and the “plasma levels of C-reactive molecules” value ([1]; patients with diabetes) is given as “decreased”.

In the case of `COC(=O)/C=C/C(C)=C\C=C\C(C)=C\C=C\C=C(C)\C=C\C=C(C)\C=C\C(=O)O` [bixin], the “effect on xenobiotic enzymes of lung and kidney” value (xenobiotic enzymes) is given as “induction effect”, the “lipoxydase inhibition, modulation of lipid hydroperoxide formation” value (lipoxidase; Canfield et al.) is given as “lipoxydase inhibitor” and the “antioxidant activity and lipoxidase inhibition” value (lipoxidase) is given as “strong antioxidant activity and lipoxidase inhibition”. For the same molecule, the “DNA protection in vitro” value (DNA) was “protects DNA”, the “mRNA expression levels of PIM-1, p-53, BAX, and BCL-2” value [2] was “dose dependent effects” and the “maximum ADI (acceptable daily intake)” value [3] was 0.065 mg/day/kg body weight. The “oxidative stress level of the blood (modified TBAR test)” value ([4]; control group high) was “remained normal”, the “free radical content of the blood” value ([4]; same relation as TBAR (control high, test normal)) was “same relation was found” and the “level of lipid peroxides in serum and liver” value [5] was “significantly reduced”. The final tumor weight ([6]; 0.006% dietary bixin) was 0.7 grams, the “tumor latency (days post inoculation when tumors first palpable)” value ([6]; 0.006% dietary bixin) was 38 days and the final tumor weight ([6]; 0.06% dietary bixin) was 0.3 grams. For the same molecule, the “mammary tumor incidence and tumor growth rate” value ([6]; 0.06% dietary bixin, versus 0.006% and control) was “lowest”, the “tumor latency (days post inoculation when tumors first palpable)” value ([6]; 0.06% dietary bixin) was 45 days and the “prevention of formation of cancer cells” value [7] was “did not prevent”. For the same molecule, the Connexin-43 gene expression (Connexin-43) was “does not up-regulate”, the “absorption into the blood stream” value [8] was “readily absorbed” and the “serum level of bixin” value [9] was 12 micrograms/liter. For the same molecule, the “maximum ADI for average human weight of 60 kg” value [10] was 3.9 mg per day and the “inhibition of lipid peroxidation” value (C3H- 1 O-T 1-2 cells) was “potent inhibitor”.

For `CC(/C=C/C=C(C)/C=C/C(=O)O)=C\C=C\C=C(C)\C=C\C=C(C)\C=C\C(=O)O` (stereo in doubt) [norbixin], the “DNA protection in vitro” value (DNA) is given as “protects DNA”, the “DNA breakage in liver and kidney” value [11] is given as “no detectable DNA breakage” and the hypoglycemia induced [12] is given as “up to 22%”. For the same molecule, the “serum level of norbixin” value [9] was 60 micrograms/liter, the hyperglycemia induced ([13]; 8.5 mg dietary norbixin/kg body weight) was 27% and the hyperglycemia induced ([13]; 74 mg/kg) was 53%.

For tocotrienol, the “bioavailability to maternal and fetal brains” value [14] is given as “bioavailable”, the “protection from glutamate-induced death” value [15] is given as “protects” and the “reduction of total cholesterol levels” value [16] is given as 20%.

In the case of `COC(=O)/C=C/C(C)=C/C=C/C(C)=C/C=C/C=C(C)/C=C/C=C(C)/C=C/C(=O)OC` [methylbixin], the “antioxidant activity and lipoxidase inhibition” value (lipoxidase) is listed as “strong antioxidant activity and lipoxidase inhibition”.

For isoscutellarein, the aldose reductase inhibition (aldose reductase) is given as “aldose reductase inhibitor”.

In the case of `CC(C)=CCC/C(C)=C/CC/C(C)=C/CC/C(C)=C/CO` [geranylgeraniol], the “aberrant (oncogenic) signaling between cells” value (NIH3T3 cells) is listed as “selectively inhibits”, the induction of apoptosis (tumor cells) is listed as “very potent inducer of apoptosis” and the “lipid metabolic target genes” value (PPARgamma and PPARalpha) is listed as “upregulates”. For the same molecule, the “esterification of retinol into inactive retinyl esters” value [17] was “inhibits esterification” and the “activation of caspase-3” value (caspase-3) was “selective activation”.
